Source: ChEMBL document CHEMBL3217491, “Design, synthesis and biological evaluation of imidazopyridine/pyrimidine-chalcone derivatives as potential anticancer agents” (2010)
Active and inactive are the calls of the source. No cut-off for these calls is given here.

Experiments:
[1] = tested on: MCF7; assay: Cell cycle arrest in human MCF7 cells assessed as accumulation at G0/G1 phase at 4 uM after 24 hrs by propidium iodide staining-based flow cytometry (reference value: 64.04%); format: functional
[2] = tested on: TK-10; assay: Growth inhibition of human TK10 cells after 48 hrs by SRB assay; format: functional; settings: TK-10, 48 h
[3] = tested on: A498; assay: Growth inhibition of human A498 cells after 48 hrs by SRB assay; format: functional; settings: A498, 48 h
[4] = Growth inhibition of human HCC2998 cells after 48 hrs by SRB assay; format: functional; settings: HCC 2998, 48 h
[5] = tested on: HT-29; assay: Growth inhibition of human HT-29 cells after 48 hrs by SRB assay; format: functional; settings: HT-29, 48 h
[6] = tested on: 786-0; assay: Growth inhibition of human 786-0 cells after 48 hrs by SRB assay; format: functional; settings: 786-0, 48 h
[7] = tested on: SN12C; assay: Growth inhibition of human SN12C cells after 48 hrs by SRB assay; format: functional
[8] = Growth inhibition of human OVCAR8 cells after 48 hrs by SRB assay; format: functional; settings: OVCAR-8, 48 h
[9] = Growth inhibition of human OVCAR4 cells after 48 hrs by SRB assay; format: functional; settings: OVCAR-4, 48 h
[10] = tested on: SK-MEL-5; assay: Growth inhibition of human SK-MEL-5 cells after 48 hrs by SRB assay; format: functional; settings: SK-MEL-5, 48 h
[11] = tested on: T47D; assay: Growth inhibition of human T47D cells after 48 hrs by SRB assay; format: functional
[12] = Growth inhibition of human OVCAR5 cells after 48 hrs by SRB assay; format: functional; settings: OVCAR-5, 48 h
[13] = tested on: SK-MEL-28; assay: Growth inhibition of human SK-MEL-28 cells after 48 hrs by SRB assay; format: functional; settings: SK-MEL-28, 48 h
[14] = tested on: K562; assay: Growth inhibition of human K562 cells after 48 hrs by SRB assay; format: functional; settings: K562, 48 h
[15] = tested on: U-251; assay: Growth inhibition of human U251 cells after 48 hrs by SRB assay; format: functional; settings: U-251, 48 h
[16] = Growth inhibition of human UACC257 cells after 48 hrs by SRB assay; format: functional; settings: UACC-257, 48 h
[17] = Growth inhibition of human HCT15 cells after 48 hrs by SRB assay; format: functional; settings: HCT-15, 48 h
[18] = tested on: ACHN; assay: Growth inhibition of human ACHN cells after 48 hrs by SRB assay; format: functional
[19] = tested on: SR; assay: Growth inhibition of human SR cells after 48 hrs by SRB assay; format: functional
[20] = Growth inhibition of human MOLT4 cells after 48 hrs by SRB assay; format: functional; settings: MOLT-4, 48 h
[21] = tested on: MDA-MB-231; assay: Growth inhibition of human MDA-MB-231 cells after 48 hrs by SRB assay; format: functional; settings: MDA-MB-231, 48 h
[22] = Growth inhibition of human EKVX cells after 48 hrs by SRB assay; format: functional
[23] = tested on: SNB-19; assay: Growth inhibition of human SNB19 cells after 48 hrs by SRB assay; format: functional; settings: SNB-19, 48 h
[24] = tested on: HCT-116; assay: Growth inhibition of human HCT116 cells after 48 hrs by SRB assay; format: functional; settings: HCT-116, 48 h
[25] = tested on: SNB-75; assay: Growth inhibition of human SNB75 cells after 48 hrs by SRB assay; format: functional; settings: SNB-75, 48 h
[26] = tested on: IGROV-1; assay: Growth inhibition of human IGROV1 cells after 48 hrs by SRB assay; format: functional; settings: IGROV-1, 48 h
[27] = Growth inhibition of human Hs578T cells after 48 hrs by SRB assay; format: functional; settings: Hs-578T
[28] = Growth inhibition of human LOXIMVI cells after 48 hrs by SRB assay; format: functional; settings: LOX IMVI
[29] = tested on: SK-OV-3; assay: Growth inhibition of human SKOV3 cells after 48 hrs by SRB assay; format: functional; settings: SK-OV-3, 48 h
[30] = tested on: COLO 205; assay: Growth inhibition of human COLO205 cells after 48 hrs by SRB assay; format: functional; settings: COLO 205, 48 h
[31] = Growth inhibition of human NCI-ADR-RES cells after 48 hrs by SRB assay; format: functional
[32] = tested on: KM12; assay: Growth inhibition of human KM12 cells after 48 hrs by SRB assay; format: functional; settings: KM12, 48 h
[33] = tested on: MCF7; assay: Cell cycle arrest in human MCF7 cells assessed as accumulation at G2/M phase at 4 uM after 24 hrs by propidium iodide staining-based flow cytometry (reference value: 15.79%); format: functional
[34] = tested on: CCRF-CEM; assay: Growth inhibition of human CCRF-CEM cells after 48 hrs by SRB assay; format: functional
[35] = Growth inhibition of human HOP92 cells after 48 hrs by SRB assay; format: functional; settings: HOP-92, 48 h
[36] = tested on: MCF7; assay: Growth inhibition of human MCF7 cells after 48 hrs by SRB assay; format: functional; settings: MCF7, 48 h
[37] = tested on: SF-268; assay: Growth inhibition of human SF268 cells after 48 hrs by SRB assay; format: functional; settings: SF-268, 48 h
[38] = tested on: A549; assay: Growth inhibition of human A549 cells after 48 hrs by SRB assay; format: functional; settings: A549, 48 h
[39] = Growth inhibition of human UO31 cells after 48 hrs by SRB assay; format: functional; settings: UO-31, 48 h
[40] = tested on: M14; assay: Growth inhibition of human M14 cells after 48 hrs by SRB assay; format: functional; settings: M14, 48 h
[41] = Growth inhibition of human UACC62 cells after 48 hrs by SRB assay; format: functional; settings: UACC-62, 48 h
[42] = Growth inhibition of human BT549 cells after 48 hrs by SRB assay; format: functional; settings: BT-549, 48 h
[43] = tested on: HL-60(TB); assay: Growth inhibition of human HL-60(TB) cells after 48 hrs by SRB assay; format: functional; settings: HL-60, 48 h
[44] = tested on: DU-145; assay: Growth inhibition of human DU145 cells after 48 hrs by SRB assay; format: functional; settings: DU-145, 48 h
[45] = tested on: PC-3; assay: Growth inhibition of human PC3 cells after 48 hrs by SRB assay; format: functional; settings: PC-3, 48 h
[46] = tested on: SK-MEL-2; assay: Growth inhibition of human SK-MEL-2 cells after 48 hrs by SRB assay; format: functional; settings: SK-MEL-2, 48 h
[47] = tested on: MCF7; assay: Growth inhibition of human MCF7 cells assessed as cell viability at 4 uM after 24 hrs by MTT assay; format: functional, cell-based
[48] = Growth inhibition of human OVCAR3 cells after 48 hrs by SRB assay; format: functional; settings: OVCAR-3, 48 h
[49] = tested on: NCI-H460; assay: Growth inhibition of human NCI-H460 cells after 48 hrs by SRB assay; format: functional; settings: NCI-H460, 48 h
[50] = tested on: NCI-H226; assay: Growth inhibition of human NCI-H226 cells after 48 hrs by SRB assay; format: functional; settings: NCI-H226, 48 h
[51] = Growth inhibition of human SF295 cells after 48 hrs by SRB assay; format: functional; settings: SF-295, 48 h
[52] = tested on: NCI-H23; assay: Growth inhibition of human NCI-H23 cells after 48 hrs by SRB assay; format: functional; settings: NCI-H23, 48 h
[53] = tested on: MCF7; assay: Cell cycle arrest in human MCF7 cells assessed as accumulation at S phase at 4 uM after 24 hrs by propidium iodide staining-based flow cytometry (reference value: 20.17%); format: functional
[54] = tested on: NCI-H522; assay: Growth inhibition of human NCI-H522 cells after 48 hrs by SRB assay; format: functional; settings: NCI-H522, 48 h
[55] = tested on: MDA-MB-435; assay: Growth inhibition of human MDA-MB-435 cells after 48 hrs by SRB assay; format: functional; settings: MDA-MB-435, 48 h
[56] = Growth inhibition of human RXF393 cells after 48 hrs by SRB assay; format: functional; settings: RXF 393, 48 h
[57] = tested on: NCI-H322M; assay: Growth inhibition of human NCI-H322M cells after 48 hrs by SRB assay; format: functional
[58] = Growth inhibition of human SF539 cells after 48 hrs by SRB assay; format: functional; settings: SF-539, 48 h
[59] = tested on: Malme-3M; assay: Growth inhibition of human MALME-3M cells after 48 hrs by SRB assay; format: functional
[60] = tested on: HOP-62; assay: Growth inhibition of human HOP62 cells after 48 hrs by SRB assay; format: functional; settings: HOP-62, 48 h
[61] = tested on: MDA-MB-468; assay: Growth inhibition of human MDA-MB-468 cells after 48 hrs by SRB assay; format: functional; settings: MDA-MB-468, 48 h
[62] = tested on: SW-620; assay: Growth inhibition of human SW620 cells after 48 hrs by SRB assay; format: functional; settings: SW-620, 48 h
[63] = tested on: CAKI-1; assay: Growth inhibition of human Caki1 cells after 48 hrs by SRB assay; format: functional; settings: CAKI-1, 48 h
[64] = tested on: RPMI-8226; assay: Growth inhibition of human RPMI8226 cells after 48 hrs by SRB assay; format: functional; settings: RPMI-8226, 48 h

COc1cc(C(=O)/C=C/c2c(-c3ccc(F)cc3)nc3ncccn23)cc(OC)c1OC
Activity [1]: 74.16%
GI50 [2]: 3.25 µM
GI50 [3]: 2200 nM
GI50 [4]: 1770 nM
GI50 [5]: 2520 nM
GI50 [6]: 2760 nM
GI50 [7]: 2260 nM
GI50 [8]: 2690 nM
GI50 [9]: 2930 nM
GI50 [10]: 2220 nM
GI50 [11]: 2090 nM
GI50 [12]: 2460 nM
GI50 [13]: 3.68 µM
GI50 [14]: 3.03 µM
GI50 [15]: 1680 nM
GI50 [16]: 3.73 µM
GI50 [17]: 2110 nM
GI50 [18]: 2210 nM
GI50 [19]: 2280 nM
GI50 [20]: 3.75 µM
GI50 [21]: 2990 nM
GI50 [22]: 2710 nM
GI50 [23]: 3.12 µM
GI50 [24]: 1530 nM
GI50 [25]: 2390 nM
GI50 [26]: 1930 nM
GI50 [27]: 2010 nM
GI50 [28]: 1570 nM
GI50 [29]: 2640 nM
GI50 [30]: 1700 nM
GI50 [31]: 1580 nM
GI50 [32]: 1690 nM
Activity [33]: 3.95%
GI50 [34]: 4.05 µM
GI50 [35]: 1770 nM
GI50 [36]: 1610 nM
GI50 [37]: 1900 nM
GI50 [38]: 3.34 µM
GI50 [39]: 730 nM
GI50 [40]: 2160 nM
GI50 [41]: 1740 nM
GI50 [42]: 1800 nM
GI50 [43]: 3.33 µM
GI50 [44]: 1630 nM
GI50 [45]: 4.35 µM
GI50 [46]: 2380 nM
inhibition [47]: Active
GI50 [48]: 1400 nM
GI50 [49]: 1590 nM
GI50 [50]: 3.08 µM
GI50 [51]: 2430 nM
GI50 [52]: 1580 nM
Activity [53]: 21.89%
GI50 [54]: 2870 nM
GI50 [55]: 2360 nM
GI50 [56]: 1440 nM
GI50 [57]: 2070 nM
GI50 [58]: 1550 nM
GI50 [59]: 2840 nM
GI50 [60]: 3.12 µM
GI50 [61]: 2750 nM
GI50 [62]: 2090 nM
GI50 [63]: 2060 nM
GI50 [64]: 2560 nM
